The target in one assay is T1, PI3Kα (Homo sapiens, UniProt P42336).
T1 construct: His6 (N); made in house; host or cells: S. frugiperda 9 (Sf9) insect cells
The experiment in a line: Solid-phase lipid kinase assay of PI3Kα (p110α assay). The class given is biochemical. As to conditions: recombinant truncated human p110α, 10 μM ATP. The source says: [Determination of IC50 Values of Compounds in Kinase Assay of PI3Kα]
LABORATORIES (Toronto, Canada). […] [γ^33P]ATP and unlabeled ATP were purchased from […] […] BIOTECH (Buckinghamshire, UK) and ROCHE DIAGNOSTICS (Mannheim, Germany), respectively. Scintillation cocktails and MicroScint PS™ were purchased from PACKARD (Meriden, Conn.). Maxisorp™ plates were purchased from NALGE NUNC INTERNATIONAL K.K. (Tokyo, Japan). All other chemicals not further specified were from WAKO PURE CHEMICALS (Osaka, Japan).
The plates were subsequently air-dried by incubation for at least 2 hours in a fume hood. The reaction was set up by mixing 25 μL/well of assay buffer 2×(100 mM MOPSO/NaOH, 0.2 M NaCl, pH 7.0, 8 mM MgCl2, 2 mg/mL BSA (fatty acid-free)), and 7.5 ng/well PI3Kα in the lipid pre-coated plate. 100× test compounds were added in 2% DMSO. The reaction was started by adding 20 μL/well of ATP mix (final 10 μM ATP; 0.05 μCi/well [γ^33P]ATP). After incubation at RT for 2 hours, the reaction was terminated by adding 50 μl/well stop solution (50 mM EDTA, pH 8.0). The plate was then washed twice with Tris-buffered saline (TBS, pH 7.4). MicroScint PS™ (PACKARD) scintillation mix was added at 100 μL/well, and radioactivity was counted using a TopCount™ (PACKARD) scintillation counter.
The inhibition percent at each concentration of compound was calculated, and IC50 values were determined from the inhibition of curve.

The test system of assay [1] is IGF-1 induced AKT phosphorylation in A549 cells. The experiment in a line: IGF-1 induced AKT phosphorylation assay (A549 cell assay). Type of assay: cell-based. As to conditions: Homo sapiens; A549 cells, 25 ng/ml IGF-1, phospho-AKT(Ser 473); read-out: average IC50 in the A549 cell assay. A digest of the protocol:
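A549 cells stimulated with 25 ng/ml IGF-1 for 10 min at 37 °C, then fixed in formaldehyde/methanol. Phospho-AKT detected by cell ELISA (primary anti-phospho-AKT, HRP secondary, ECL luminescence); IC50 from inhibition curve.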

In the next assay the target is T2, PI3Kβ (Homo sapiens, UniProt P42338).
T2 construct: His6 (N); made in house; host or cells: S. frugiperda 9 (Sf9) insect cells
The experiment in a line: Isozyme selectivity test: kinase assay of PI3Kβ (p110β assay). Type of assay: biochemical. Particulars: recombinant truncated p110β, 7.5 ng protein/well. The source says:
[Isozyme Selectivity Test in PI3K]
Determination of IC50 Values of Compounds in Kinase Assays of PI3Kβ and PI3Kγ

Data on 25 molecules can be found in patent USRE46856E1, “Substituted 2,3-dihydroimidazo[1,2-c]quinazoline derivatives useful for treating hyper-proliferative disorders and diseases associated with angiogenesis” (Bayer Intellectual Property GmbH, priority 2006, dated 2018).

Structures can show the parent of a compound that is named as a salt.

T2 sequence (P42338 109-1070): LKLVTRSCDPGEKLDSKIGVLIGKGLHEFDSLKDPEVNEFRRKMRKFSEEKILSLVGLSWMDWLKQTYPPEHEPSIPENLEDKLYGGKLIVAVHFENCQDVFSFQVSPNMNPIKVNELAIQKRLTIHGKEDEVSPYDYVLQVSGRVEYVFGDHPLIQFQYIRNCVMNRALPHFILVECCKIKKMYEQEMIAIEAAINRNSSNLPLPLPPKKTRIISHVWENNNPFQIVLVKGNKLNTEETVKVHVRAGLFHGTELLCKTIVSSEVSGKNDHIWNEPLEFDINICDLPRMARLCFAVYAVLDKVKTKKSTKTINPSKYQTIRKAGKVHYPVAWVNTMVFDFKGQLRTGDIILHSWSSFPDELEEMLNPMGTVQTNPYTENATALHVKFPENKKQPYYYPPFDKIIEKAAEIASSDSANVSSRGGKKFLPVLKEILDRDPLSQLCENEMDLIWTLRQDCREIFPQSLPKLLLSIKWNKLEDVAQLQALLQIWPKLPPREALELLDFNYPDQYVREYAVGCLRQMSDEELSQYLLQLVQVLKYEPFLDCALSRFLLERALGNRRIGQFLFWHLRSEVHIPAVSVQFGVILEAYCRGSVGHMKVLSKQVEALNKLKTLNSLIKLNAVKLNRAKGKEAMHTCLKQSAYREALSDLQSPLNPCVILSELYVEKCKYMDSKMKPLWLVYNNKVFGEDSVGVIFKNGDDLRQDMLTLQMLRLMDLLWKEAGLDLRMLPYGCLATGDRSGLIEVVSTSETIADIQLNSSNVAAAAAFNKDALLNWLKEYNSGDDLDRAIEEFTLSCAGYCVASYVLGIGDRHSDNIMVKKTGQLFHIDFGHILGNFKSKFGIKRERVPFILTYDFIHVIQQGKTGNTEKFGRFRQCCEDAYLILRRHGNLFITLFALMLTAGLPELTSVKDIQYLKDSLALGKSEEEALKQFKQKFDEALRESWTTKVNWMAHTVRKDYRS
T1 sequence (P42336 109-1068): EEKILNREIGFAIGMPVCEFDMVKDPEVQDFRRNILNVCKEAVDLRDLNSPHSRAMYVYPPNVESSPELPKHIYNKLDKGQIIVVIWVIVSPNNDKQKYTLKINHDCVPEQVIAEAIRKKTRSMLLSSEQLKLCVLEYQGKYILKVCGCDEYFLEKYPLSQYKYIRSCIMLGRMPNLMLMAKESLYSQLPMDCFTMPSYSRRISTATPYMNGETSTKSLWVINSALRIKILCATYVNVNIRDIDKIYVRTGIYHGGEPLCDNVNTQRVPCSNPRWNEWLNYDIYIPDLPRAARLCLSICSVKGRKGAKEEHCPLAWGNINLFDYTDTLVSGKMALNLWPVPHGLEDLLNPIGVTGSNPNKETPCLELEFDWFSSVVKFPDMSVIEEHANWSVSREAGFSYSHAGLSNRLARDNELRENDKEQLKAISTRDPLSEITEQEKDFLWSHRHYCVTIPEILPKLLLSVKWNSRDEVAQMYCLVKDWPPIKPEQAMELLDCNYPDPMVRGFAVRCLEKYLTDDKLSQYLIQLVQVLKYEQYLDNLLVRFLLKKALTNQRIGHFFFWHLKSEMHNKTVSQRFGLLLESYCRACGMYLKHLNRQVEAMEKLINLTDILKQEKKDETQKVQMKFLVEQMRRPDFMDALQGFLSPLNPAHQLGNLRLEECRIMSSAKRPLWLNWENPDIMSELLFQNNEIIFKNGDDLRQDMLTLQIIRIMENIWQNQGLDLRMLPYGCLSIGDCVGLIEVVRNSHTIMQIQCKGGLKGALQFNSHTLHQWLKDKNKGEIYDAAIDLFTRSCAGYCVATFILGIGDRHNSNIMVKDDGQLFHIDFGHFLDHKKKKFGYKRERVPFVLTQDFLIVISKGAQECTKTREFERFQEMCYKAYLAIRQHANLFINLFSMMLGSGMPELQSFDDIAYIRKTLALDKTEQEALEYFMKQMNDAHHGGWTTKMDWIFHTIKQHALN

`COc1c(OCCCN2C[C@@H](C)O[C@@H](C)C2)ccc2c1N=C(NC(=O)c1ccc(C)nc1)N1CCN=C21` [Example 28, rel-N-(8-{3-[(2R,6S)-2,6-dimethylmorpholin-4-yl]propoxy}-7-methoxy-2,3-dihydroimidazo[1,2-c]quinazolin-5-yl)-6-methylnicotinamide]: the IC50 (as a rule, the concentration that gives 50% inhibition) on PI3Kα was less than 10 nM; in assay [1], less than 100 nM; at PI3Kβ, less than 10 nM.

For the molecule `COc1c(OCCCN2CCOCC2)ccc2c1N=C(NC(=O)c1ccc(NC(=O)C(C)(C)C)nc1)N1CCN=C21` [Example 59, 6-[(2,2-dimethylpropanoyl)amino]-N-[7-methoxy-8-(3-morpholin-4-ylpropoxy)-2,3-dihydroimidazo[1,2-c]quinazolin-5-yl]nicotinamide], the IC50 is more than 100 nM at PI3Kα, more than 1000 nM in assay [1] and more than 100 nM at PI3Kβ.

Consider `COc1c(OCCCN2C[C@@H](C)O[C@@H](C)C2)ccc2c1N=C(NC(=O)c1ccc(NC(C)=O)nc1)N1CCN=C21` [Example 29, rel-6-acetamido-N-(8-{3-[(2R,6S)-2,6-dimethylmorpholin-4-yl]propoxy}-7-methoxy-2,3-dihydroimidazo[1,2-c]quinazolin-5-yl)nicotinamide], for which the IC50 is less than 10 nM on PI3Kα, less than 100 nM in assay [1] and less than 10 nM at PI3Kβ.

With `COc1c(OCCCN2CCOCC2)ccc2c1N=C(NC(=O)c1cnc(N3CCOCC3)nc1)N1CCN=C21` [Example 49, N-[7-methoxy-8-(3-morpholin-4-ylpropoxy)-2,3-dihydroimidazo[1,2-c]quinazolin-5-yl]-2-morpholin-4-ylpyrimidine-5-carboxamide], the IC50 on PI3Kα and on PI3Kβ was 10 to 100 nM throughout.

As for `COc1c(OCCCN(C)C)ccc2c1N=C(NC(=O)c1cnc(N)nc1)N1CCN=C21` [Example 42, 2-amino-N-{8-[3-(dimethylamino)propoxy]-7-methoxy-2,3-dihydroimidazo[1,2-c]quinazolin-5-yl}pyrimidine-5-carboxamide], the IC50 in assay [1] was less than 100 nM.

As for `COc1c(OCCN(C)C)ccc2c1N=C(NC(=O)c1cccnc1)N1CCN=C21` [Example 89, N-{8-[2-(dimethylamino)ethoxy]-7-methoxy-2,3-dihydroimidazo[1,2-c]quinazolin-5-yl}nicotinamide], the IC50 in assay [1] was 100 to 1000 nM.

Regarding `COc1c(OCCN2CCCC2)ccc2c1N=C(NC(=O)c1cccnc1)N1CCN=C21` [Example 75, N-[7-methoxy-8-(2-pyrrolidin-1-ylethoxy)-2,3-dihydroimidazo[1,2-c]quinazolin-5-yl]nicotinamide], in assay [1], the IC50 was less than 100 nM.

For `COc1c(OCCCN2CCOC[C@@H]2C)ccc2c1N=C(NC(=O)c1cccnc1)N1CCN=C21` [Example 17, N-{7-methoxy-8-[3-(3-methylmorpholin-4-yl)propoxy]-2,3-dihydroimidazo[1,2-c]quinazolin-5-yl}nicotinamide], the IC50 on PI3Kα and on PI3Kβ was 10 to 100 nM throughout.

As for `COc1c(OCCCN2CCOCC2)ccc2c1N=C(NC(=O)c1cnccn1)N1CCN=C21` [Example 81, N-[7-methoxy-8-(3-morpholin-4-ylpropoxy)-2,3-dihydroimidazo[1,2-c]quinazolin-5-yl]pyrazine-2-carboxamide], the IC50 in assay [1] is more than 1000 nM.

As for `COc1c(OCCCN2CCOCC2)ccc2c1N=C(NC(=O)c1ccc(NC(=O)C(C)C)nc1)N1CCN=C21` [Example 63, 6-(isobutyrylamino)-N-[7-methoxy-8-(3-morpholin-4-ylpropoxy)-2,3-dihydroimidazo[1,2-c]quinazolin-5-yl]nicotinamide], the IC50 in assay [1] is less than 100 nM.

Consider `COc1c(OCCCN2CCOCC2)ccc2c1N=C(NC(=O)c1cncn1C)N1CCN=C21` [Example 30, N-[7-methoxy-8-(3-morpholin-4-ylpropoxy)-2,3-dihydroimidazo[1,2-c]quinazolin-5-yl]-1-methyl-1H-imidazole-5-carboxamide], for which, in assay [1], the IC50 lay within 100 to 1000 nM.

With `COc1c(OCCCN2CCOCC2)ccc2c1N=C(NC(=O)c1ccc(N3CC[C@@H](N)C3)nc1)N1CCN=C21` [Example 52, 6-[(3R)-3-aminopyrrolidin-1-yl]-N-[7-methoxy-8-(3-morpholin-4-ylpropoxy)-2,3-dihydroimidazo[1,2-c]quinazolin-5-yl]nicotinamide hydrochloride], the IC50 in assay [1] was less than 100 nM.

Consider `CCNC(=O)Nc1ccc(C(=O)NC2=Nc3c(ccc(OCCCN4CCOCC4)c3OC)C3=NCCN23)cn1` [Example 77, 6-{[(ethylamino)carbonyl]amino}-N-[7-methoxy-8-(3-morpholin-4-ylpropoxy)-2,3-dihydroimidazo[1,2-c]quinazolin-5-yl]nicotinamide], for which, in assay [1], the concentration for half-maximal inhibition (IC50) was less than 100 nM.

Consider `COc1c(OCCN)ccc2c1N=C(NC(=O)c1cccnc1)N1CCN=C21` [Example 82, N-[8-(2-aminoethoxy)-7-methoxy-2,3-dihydroimidazo[1,2-c]quinazolin-5-yl]nicotinamide], for which the IC50 in assay [1] lay in the range of 100 to 1000 nM.

On to `COc1c(OCCN2CCOCC2)ccc2c1N=C(NC(=O)c1cccnc1)N1CCN=C21` [Example 68, N-[7-methoxy-8-(2-morpholin-4-ylethoxy)-2,3-dihydroimidazo[1,2-c]quinazolin-5-yl]nicotinamide], for which the IC50 in assay [1] is less than 100 nM.

Regarding `CNC(=O)Nc1nc(C(=O)NC2=Nc3c(ccc(OCCCN4CCOCC4)c3OC)C3=NCCN23)cs1` [Example 65, N-[7-methoxy-8-(3-morpholin-4-ylpropoxy)-2,3-dihydroimidazo[1,2-c]quinazolin-5-yl]-2-{[(methylamino)carbonyl]amino}-1,3-thiazole-4-carboxamide], the IC50 in assay [1] is more than 1000 nM.

Consider `COc1c(OCCCN2CCOCC2)ccc2c1N=C(NC(=O)c1cccnc1)N1CCN=C21` [Example 103, N-[7-methoxy-8-(3-morpholin-4-ylpropoxy)-2,3-dihydroimidazo[1,2-c]quinazolin-5-yl]nicotinamide], for which the IC50 in assay [1] was less than 100 nM.

Take `COc1cncc(C(=O)NC2=Nc3c(ccc(OCCCN4CCOCC4)c3OC)C3=NCCN23)c1` [Example 100, 5-methoxy-N-[7-methoxy-8-(3-morpholin-4-ylpropoxy)-2,3-dihydroimidazo[1,2-c]quinazolin-5-yl]nicotinamide]: in assay [1], the IC50 is 100 to 1000 nM.

Take `COc1c(OCC2CN(C)CCO2)ccc2c1N=C(NC(=O)c1cccnc1)N1CCN=C21` (stereo not drawn) [Example 23, N-{7-methoxy-8-[(4-methylmorpholin-2-yl)methoxy]-2,3-dihydroimidazo[1,2-c]quinazolin-5-yl}nicotinamide]: the IC50 in assay [1] was less than 100 nM.

Consider `COc1c(OCCCN2CCOCC2)ccc2c1N=C(NC(=O)c1sc(N)nc1C)N1CCN=C21` [Example 6, 2-amino-N-[7-methoxy-8-(3-morpholin-4-ylpropoxy)-2,3-dihydroimidazo[1,2-c]quinazolin-5-yl]-4-methyl-1,3-thiazole-5-carboxamide], for which, in assay [1], the IC50 was less than 100 nM.

`COc1c(OCCCN(C)C)ccc2c1N=C(NC(=O)c1ccc(N)nc1)N1CCN=C21` [Example 46, 6-amino-N-{8-[3-(dimethylamino)propoxy]-7-methoxy-2,3-dihydroimidazo[1,2-c]quinazolin-5-yl}nicotinamide]: the IC50 in assay [1] was less than 100 nM.

On to `COc1c(OCCCN2CCOCC2)ccc2c1N=C(NC(=O)c1ccc(C)nc1)N1CCN=C21` [Example 101, N-[7-methoxy-8-(3-morpholin-4-ylpropoxy)-2,3-dihydroimidazo[1,2-c]quinazolin-5-yl]-6-methylnicotinamide], for which the half-maximal inhibitory concentration (IC50) in assay [1] is less than 100 nM.

For the molecule `CCCc1nc(N)ncc1C(=O)NC1=Nc2c(ccc(OCCCN3CCOCC3)c2OC)C2=NCCN12` [Example 7, 2-amino-N-[7-methoxy-8-(3-morpholin-4-ylpropoxy)-2,3-dihydroimidazo[1,2-c]quinazolin-5-yl]-4-propylpyrimidine-5-carboxamide], the IC50 in assay [1] is less than 100 nM.

Turning to `COc1c(OCCCN(C)C)ccc2c1N=C(NC(=O)c1cccnc1)N1CCN=C21` [Example 88, N-{8-[3-(dimethylamino)propoxy]-7-methoxy-2,3-dihydroimidazo[1,2-c]quinazolin-5-yl}nicotinamide], the IC50 in assay [1] lay in the range of 100 to 1000 nM.

Regarding `COc1c(OCCCN(C)C)ccc2c1N=C(NC(=O)c1cnc(NCCN(C)C)nc1)N1CCN=C21` [Example 36, 2-{[2-(dimethylamino)ethyl]amino}-N-{8-[3-(dimethylamino)propoxy]-7-methoxy-2,3-dihydroimidazo[1,2-c]quinazolin-5-yl}pyrimidine-5-carboxamide], the IC50 in assay [1] lay in the range of 100 to 1000 nM.
